Read-outs that look alike come from different tables or passages of the source.
Experiments:
[1] = test system: HCMV Strain AD169 in MRC-5 cells; test: Viral qPCR assay HCMV (V0/V1, V2/V3), EC50; format: cell-based; details: read-out: HCMV Cell (EC50)
Summary of the method: (§1)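 Infected cells added to compounds (10-point 3-fold series), ~72 h at 37 °C, then lysed; viral genomes by TaqMan qPCR against plasmid standard, normalized to PPIA in V0/V1 only, EC50 from 4-parameter fit. HCMV AD169, 0.05-0.1 pfu/cell, ± 50% FBS; VZV 0.04-0.1 pfu/cell; HSV-1 F 0.0005-0.004 pfu/cell.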

[2] = molecular target: T1, Human cytomegalovirus DNA polymerase (Human cytomegalovirus, UniProt P08546); test: HCMV polymerase assay (AlphaLISA, IC50); format: biochemical; details: polymerase assay of Example 190
T1 construct: made in house; host or cells: SF21 insect cells (baculovirus vector)
T1 sequence (P08546 whole entry): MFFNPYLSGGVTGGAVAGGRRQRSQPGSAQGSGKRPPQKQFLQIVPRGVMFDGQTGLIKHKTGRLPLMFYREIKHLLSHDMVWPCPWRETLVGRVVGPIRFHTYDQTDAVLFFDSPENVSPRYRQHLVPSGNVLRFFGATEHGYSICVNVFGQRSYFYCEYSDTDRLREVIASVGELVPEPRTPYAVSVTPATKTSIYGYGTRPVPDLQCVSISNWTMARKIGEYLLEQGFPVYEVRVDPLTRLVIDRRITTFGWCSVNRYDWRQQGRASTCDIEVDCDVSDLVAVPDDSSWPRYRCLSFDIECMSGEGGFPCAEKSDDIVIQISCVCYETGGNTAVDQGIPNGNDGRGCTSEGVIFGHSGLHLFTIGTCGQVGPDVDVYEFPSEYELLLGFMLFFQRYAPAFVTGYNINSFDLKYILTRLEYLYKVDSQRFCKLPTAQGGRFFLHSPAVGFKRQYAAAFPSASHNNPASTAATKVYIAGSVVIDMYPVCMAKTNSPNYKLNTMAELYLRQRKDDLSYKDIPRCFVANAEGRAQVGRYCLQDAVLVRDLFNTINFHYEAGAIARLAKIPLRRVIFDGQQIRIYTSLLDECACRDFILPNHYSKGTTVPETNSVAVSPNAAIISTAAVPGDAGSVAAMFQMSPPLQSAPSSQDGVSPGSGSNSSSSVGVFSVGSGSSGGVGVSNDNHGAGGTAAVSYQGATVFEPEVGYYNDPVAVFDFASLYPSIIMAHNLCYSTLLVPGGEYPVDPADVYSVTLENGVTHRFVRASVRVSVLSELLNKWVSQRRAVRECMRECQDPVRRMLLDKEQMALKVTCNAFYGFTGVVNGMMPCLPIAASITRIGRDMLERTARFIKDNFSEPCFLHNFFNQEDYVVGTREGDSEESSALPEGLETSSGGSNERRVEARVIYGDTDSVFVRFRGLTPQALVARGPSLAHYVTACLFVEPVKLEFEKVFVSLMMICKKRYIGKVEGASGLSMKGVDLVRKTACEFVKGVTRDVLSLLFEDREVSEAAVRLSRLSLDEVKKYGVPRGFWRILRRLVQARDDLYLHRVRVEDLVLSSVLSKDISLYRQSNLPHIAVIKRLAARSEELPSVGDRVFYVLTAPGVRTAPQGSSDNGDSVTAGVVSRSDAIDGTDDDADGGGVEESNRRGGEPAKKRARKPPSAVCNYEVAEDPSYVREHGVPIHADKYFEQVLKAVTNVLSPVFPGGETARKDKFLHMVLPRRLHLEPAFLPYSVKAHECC
Summary of the method: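 Baculovirus-expressed polymerase (HCMV 0.2 nM, VZV 0.4 nM final) preincubated 30 min at room temperature with compound in pH 7.5 HEPES buffer; reaction started with 1.6 nM DIG-primer/template and nM dNTPs including biotin-dUTP, run 60 min at 37° C. Incorporation detected by AlphaLISA; IC50 from 4-parameter fit.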

[3] = test system: VZV in MeWo or MRC5 cells; test: Viral qPCR assay VZV (V0/V1, V2/V3), EC50; format: cell-based; details: 10%
Summary of the method: as §1

[4] = test system: HSV-1 Strain F in Vero or MRC5 cells; test: Viral qPCR assay HSV-1 (V0/V1, V2/V3), EC50; format: cell-based; details: 10%
Summary of the method: as §1

[5] = molecular target: T2, varicella zoster virus DNA polymerase (Varicella-zoster virus, UniProt P09252); test: VZV polymerase assay (AlphaLISA, IC50); format: biochemical; details: polymerase assay of Example 190
T2 construct: made in house; host or cells: SF21 insect cells (baculovirus vector)
T2 sequence (P09252 whole entry): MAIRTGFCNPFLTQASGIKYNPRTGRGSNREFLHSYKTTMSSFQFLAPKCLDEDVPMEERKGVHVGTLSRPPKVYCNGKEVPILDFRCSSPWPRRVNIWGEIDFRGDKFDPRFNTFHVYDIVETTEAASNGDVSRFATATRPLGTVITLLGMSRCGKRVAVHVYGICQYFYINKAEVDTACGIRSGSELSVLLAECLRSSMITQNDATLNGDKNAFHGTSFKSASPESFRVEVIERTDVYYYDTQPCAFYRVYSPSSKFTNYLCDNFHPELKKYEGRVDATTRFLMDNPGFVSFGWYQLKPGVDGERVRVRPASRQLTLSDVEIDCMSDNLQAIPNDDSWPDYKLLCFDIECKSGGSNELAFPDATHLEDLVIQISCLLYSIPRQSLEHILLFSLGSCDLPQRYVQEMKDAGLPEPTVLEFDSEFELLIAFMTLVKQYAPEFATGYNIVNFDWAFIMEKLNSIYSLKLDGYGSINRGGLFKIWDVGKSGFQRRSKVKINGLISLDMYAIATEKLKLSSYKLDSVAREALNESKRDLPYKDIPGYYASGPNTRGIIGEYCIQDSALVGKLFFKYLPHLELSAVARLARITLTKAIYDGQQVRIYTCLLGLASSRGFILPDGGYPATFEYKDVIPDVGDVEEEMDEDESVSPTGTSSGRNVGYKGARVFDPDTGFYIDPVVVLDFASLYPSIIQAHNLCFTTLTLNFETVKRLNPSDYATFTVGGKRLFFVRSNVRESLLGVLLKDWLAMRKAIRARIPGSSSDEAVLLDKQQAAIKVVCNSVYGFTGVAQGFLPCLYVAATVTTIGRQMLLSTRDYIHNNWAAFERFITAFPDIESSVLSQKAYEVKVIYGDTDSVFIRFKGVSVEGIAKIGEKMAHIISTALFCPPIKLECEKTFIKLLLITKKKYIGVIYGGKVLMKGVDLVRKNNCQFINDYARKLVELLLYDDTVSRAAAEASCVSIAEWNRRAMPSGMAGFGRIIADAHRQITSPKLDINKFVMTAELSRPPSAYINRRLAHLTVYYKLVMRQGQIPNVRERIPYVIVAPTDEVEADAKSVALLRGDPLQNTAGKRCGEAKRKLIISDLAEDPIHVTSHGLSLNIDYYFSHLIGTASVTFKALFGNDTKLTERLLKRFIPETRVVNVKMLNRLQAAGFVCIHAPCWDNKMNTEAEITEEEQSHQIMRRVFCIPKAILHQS
Method: Human cytomegalovirus and varicella zoster virus DNA polymerases were expressed via baculovirus vector in SF21 cells and purified. Heterodimeric nucleic acid substrate used in the herpesvirus polymerase reactions was generated by annealing a 59-mer template to a 17-mer digoxigenin-labeled primer. Polymerase (HCMV final concentration of 0.2 nM; VZV final concentration of 0.4 nM) was combined with an inhibitor compound or DMSO in assay buffer (10 mM HEPES, pH 7.5, 25 mM KCl, 25 mM NaCl, 5 mM MgCl2, 5% glycerol, 0.67 mg/ml bovine serum albuminutes, and 1 mM tris(2-carboxyethyl)phosphine), and this mixture was pre-incubated for 30 minutes at room temperature in 384-well microtiter plates. The polymerization reaction was initiated by the addition of template/primer substrate (final concentration: 1.6 nM), and dNTPs (final concentration: 24 nM dCTP, 24 nMdGTP, 16 nM dATP, 16 nM dTTP, and 0.8 nM biotin-dUTP). After 60 minutes incubation at 37° C., reactions were terminated with quench buffer (25 mM HEPES pH 7.5, 100 mM NaCl, 0.25% Tween-20, 12 mM EDTA, and 1 mg/ml bovine serum albumin). Incorporation of biotinylated UTP was detected with 2.5-5 ug/ml anti-DIG AlphaLISA acceptor beads and 5-10 ug/ml streptavidin AlphaLISA donor beads (Perkin Elmer). Compound effects were normalized to the window defined by the controls (DMSO only and pre-quenched wells), and were fit using a 4-parameter algorithm to report an IC50.

[6] = Human betaherpesvirus 5, AD169, MRC5, viral qPCR assay of Example 191
[7] = Human alphaherpesvirus 3, MeWo, MEWO cells, read-out: VZV Cell (EC50) MEWO 10%
[8] = Human alphaherpesvirus 1, Vero, VERO cells, read-out: HSV1 Cell (EC50) VERO 10%
[9] = Human alphaherpesvirus 3, MRC5, MRC5 cells, read-out: VZV Cell (EC50) MRC5 10%
[10] = Human alphaherpesvirus 1, MRC5, MRC5 cells, read-out: HSV1 Cell (EC50) MRC5 10%

| Compound | EC50 ([1]; viral qPCR assay of Example 191) [nM] | IC50 [2] [nM] | EC50 ([3]; MRC5 cells, read-out: VZV Cell (EC50) MRC5 10%) [nM] | EC50 ([4]; VERO cells, read-out: HSV1 Cell (EC50) VERO 10%) [nM] | IC50 [5] [nM] | EC50 [1, 6] [nM] | EC50 [3, 7] [nM] | EC50 [4, 8] [nM] | EC50 [3, 9] [nM] | EC50 [4, 10] [nM] |
| --- | --- | --- | --- | --- | --- | --- | --- | --- | --- | --- |
| O=C(NCc1ccc(Cl)cc1)c1cc(O[C@H]2CCN3C(=O)OC[C@@H]3C2)c(C2CC2CO)cn1 (single isomer, unassigned) [Compound 156-2] | 600 | 8.03 | 1180 | 738 | 4.96 |  |  |  |  |  |
| O=C(NCc1ccc(Cl)cc1)c1cc(O[C@H]2CCN3C(=O)CCC[C@@H]3C2)c(-c2cnn(C(F)F)c2)cn1 (single isomer, unassigned) [Compound 161-1] |  | 130 |  |  | 47.3 | 1330 | 210 | 461 |  |  |
| O=C(NCc1ccc(Cl)cc1)c1cc(O[C@H]2CCN3C(=O)OCC[C@@H]3C2)c(-c2cnn(C(F)F)c2)cn1 (single isomer, unassigned) [Compound 162-1] |  | 3.08 |  |  | 2.42 | 88.6 | 61.1 | 77 | 447 | 107 |
| O=C(NCc1ccc(Cl)cc1)c1cc(O[C@H]2CCN3C(=O)OC[C@@H]3C2)c(-c2cnn(C(F)F)c2)cn1 [Compound 3] |  | 10.3 |  |  | 7.39 | 180 | 112 | 70.9 | 170 | 127 |
| CC(=O)N1CCC(Oc2cc(C(=O)NCc3ccc(Cl)cc3)ncc2-c2cnn(C)c2)CC1 [Compound 6] |  | 79 |  |  | 30.8 | 342 | 84.5 | 144 |  |  |
| O=C(NCc1ccc(Cl)cc1F)c1cc(O[C@H]2CCN3C(=O)OC[C@@H]3C2)c(-c2cnn(C(F)F)c2)cn1 [Compound 8] |  | 26.2 |  |  | 33.3 | 440 | 368 | 259 |  |  |
| O=C(NCc1ccc(Cl)cc1)c1cc(O[C@H]2CCN3C(=O)OC[C@@H]3C2)c(-c2ccn(CC(F)(F)F)n2)cn1 [Compound 14] |  | 43.9 |  |  | 40.9 | 563 | 234 | 319 |  |  |
| CC(C)n1ccc(-c2cnc(C(=O)NCc3ccc(Cl)cc3)cc2O[C@H]2CCN3C(=O)OC[C@@H]3C2)n1 [Compound 15] |  | 29.2 |  |  | 19.9 | 176 | 159 | 160 |  |  |
| O=C(NCc1ccc(Cl)cc1)c1cc(O[C@H]2CCN3C(=O)OC[C@@H]3C2)c(-c2cnn(CC(F)(F)F)c2)cn1 [Compound 17] |  | 23.1 |  |  | 21 | 380 | 368 | 426 |  |  |
| O=C(NCc1ccc(Cl)cc1)c1cc(O[C@H]2CCN3C(=O)OC[C@@H]3C2)c(-c2cc[nH]n2)cn1 [Compound 18] |  | 15.7 |  |  | 10.5 | 120 | 392 | 836 | 126 | 194 |
| O=C(NCc1ccc(Cl)cc1)c1cc(O[C@H]2CCN3C(=O)OC[C@@H]3C2)c(-c2cnn(C3CC3)c2)cn1 [Compound 19] |  | 17.4 |  |  | 9.12 | 214 | 105 | 316 |  |  |
| O=C(NCc1ccc(Cl)cc1)c1cc(O[C@H]2CCN3C(=O)OC[C@@H]3C2)c(-c2cnn3c2COCC3)cn1 [Compound 20] |  | 16.4 |  |  | 12.8 | 132 |  |  | 343 | 235 |
| CC(C)n1cc(-c2cnc(C(=O)NCc3ccc(Cl)cc3)cc2O[C@H]2CCN3C(=O)OC[C@@H]3C2)cn1 [Compound 21] |  | 15.6 |  |  | 13.9 | 282 | 205 | 206 |  |  |
| O=C(NCc1ccc(Cl)cc1)c1cc(O[C@H]2CCN3C(=O)OC[C@@H]3C2)c(-c2cnc(CO)s2)cn1 [Compound 22] |  | 0.222 |  |  | 1.12 | 68.8 |  | 224 | 109 | 150 |
| O=C(NCc1ccc(Cl)cc1)c1cc(O[C@H]2CCN3C(=O)OC[C@@H]3C2)c(-c2cnco2)cn1 [Compound 24] |  | 1.6 |  |  | ≤ 0.444 | 98.7 |  |  | 121 | 56.4 |
| O=C(NCc1ccc(Cl)cc1)c1cc(O[C@H]2CCN3C(=O)OC[C@@H]3C2)c(-c2ccn(C(F)F)n2)cn1 [Compound 26] |  | 13.9 |  |  | 13.9 | 280 |  | 119 | 4590 | ≥ 80200 |
| O=C(NCc1ccc(Cl)cc1)c1cc(O[C@H]2CCN3C(=O)OC[C@@H]3C2)c(-c2cnn(CC(F)F)c2)cn1 [Compound 27] |  | 14.1 |  |  | 12.5 | 138 | 248 | 300 |  |  |
| COCCn1ccc(-c2cnc(C(=O)NCc3ccc(Cl)cc3)cc2O[C@H]2CCN3C(=O)OC[C@@H]3C2)n1 [Compound 28] |  | 14.7 |  |  | 12.7 | 325 | 422 | 327 |  |  |
| Cn1cc(-c2cnc(C(=O)NCc3ccc(Cl)cc3)cc2O[C@H]2CCN3C(=O)OC[C@@H]3C2)cn1 [Compound 29] |  | 9.24 |  |  | 7.85 | 107 | 51.6 | 184 | 109 | 102 |
| Cn1ccc(-c2cnc(C(=O)NCc3ccc(Cl)cc3)cc2O[C@H]2CCN3C(=O)OC[C@@H]3C2)n1 [Compound 30] |  | 9.86 |  |  | 16.3 | 116 | 82 | 132 | 121 | 78.2 |
| COCCn1cc(-c2cnc(C(=O)NCc3ccc(Cl)cc3)cc2O[C@H]2CCN3C(=O)OC[C@@H]3C2)cn1 [Compound 31] |  | 8.59 |  |  | 6.54 | 116 | 111 | 309 | 260 | 224 |
| Cc1ncc(-c2cnc(C(=O)NCc3ccc(Cl)cc3)cc2O[C@H]2CCN3C(=O)OC[C@@H]3C2)o1 [Compound 32] |  | 2.73 |  |  | 0.55 | 76.8 |  |  | 106 | 75 |
| O=C(NCc1ccc(Cl)cc1)c1cc(O[C@H]2CCN3C(=O)OC[C@@H]3C2)c(-c2cnc(C3CC3)o2)cn1 [Compound 33] |  | 6.24 |  |  | 2.72 | 121 |  |  | 194 | 125 |
| O=C(NCc1ccc(Cl)cc1)c1cc(O[C@H]2CCN3C(=O)OC[C@@H]3C2)c(-c2cnn(CCO)c2)cn1 [Compound 34] |  | 6.9 |  |  | 4.77 | 71.3 | 190 | 1240 |  | 412 |
| CC(C)(O)Cn1cc(-c2cnc(C(=O)NCc3ccc(Cl)cc3)cc2O[C@H]2CCN3C(=O)OC[C@@H]3C2)cn1 [Compound 35] |  | 8.15 |  |  | 7.5 | 396 |  | 1000 | 440 | 205 |
| O=C(NCc1ccc(Cl)cc1)c1cc(O[C@H]2CCN3C(=O)OC[C@@H]3C2)c(-c2cnn(C3COC3)c2)cn1 [Compound 36] |  | 4.44 |  |  | 2.47 | 172 |  | 432 | 175 | 146 |
| O=C(NCc1ccc(Cl)cc1)c1cc(O[C@H]2CCN3C(=O)OC[C@@H]3C2)c(-c2cscn2)cn1 [Compound 37] |  | 15.9 |  |  | 6.03 | 115 | 20.8 | 35.6 | 130 | 100 |
| Cn1cnc(-c2cnc(C(=O)NCc3ccc(Cl)cc3)cc2O[C@H]2CCN3C(=O)OC[C@@H]3C2)c1 [Compound 38] |  | 11.6 |  |  | 6.53 | 72.8 | 53.2 | 194 |  | ≥ 80200 |

— patent US20240067657A1, “AMIDO-SUBSTITUTED PYRIDYL COMPOUNDS AND METHODS OF USE THEREOF FOR THE TREATMENT OF HERPESVIRUSES” (Merck Sharp & Dohme LLC, priority 2020, published 2024)
